The values that follow come from US20190083495A1, “Methods Of Preventing Or Reducing A Fibrotic Response Using CSF1R Inhibitors” (Massachusetts Institute of Technology, priority 2016, published 2019).

In data set [1] the test system is reactive oxygen specie (ROS). Kind of data set: ROS activity assessment of protein lysates from retrieved alginate spheres. The data set is classed as in vivo, C57BL/6 mice. Particulars: lysates from alginate spheres 14 days after IP implantation, two ROS substrates, vs untreated and vehicle.
Data set [2] concerns C57BL/6 mice. The data set is described as follows: NanoString expression analysis of mouse cytokines and cytokine receptors. The data set is classed as in vivo. On the procedure: For targeted macrophage depletions, clodrosome (200 μL/mouse) (Encapsula Nano Sciences, Nashville, Tenn.) were injected intraperitoneally starting at −3 days (prior to implantation, day 0), and for every 7 days thereafter (so days −3, 4, and 11). To achieve neutrophil depletion, affinity purified anti-Ly6g (Clone 1A8) antibody (250 ug/mouse) (BioLegend, San Diego, Calif.) was administered also starting at day −3, and every 3 days thereafter (except the day of implantation). For the combination therapy, in order to avoid drug-antibody interactions, each agent was administered 4 hours apart from one another. To neutralize secreted CXCL13, anti-CXCL13 antibody (mAB470, R&D Systems) was injected i.p. in sterile 1×PBS at a dose of 100 μg/mouse, once every 3 days, starting 3 days prior to implantation as well. […]
RNAs for mock-implanted (saline) treated controls, or for 500 μm alginate sphere-bearing C57BL/6 mouse strains (n=4/group), including wild type, knockouts, and serially immune depleted wild type mice, were isolated from tissue samples taken at various time points after implantation, as described. […] In general, respective RNAs were quantified, normalized to the appropriate loading concentration (100 ng/μl), and then 500 ng of each sample was processed according to NanoString manufacturer protocols for expression analysis via our customized multiplexed total (known) mouse cytokine and cytokine receptor expression panel, used for both immune strain comparisons with alginate, and material class comparisons just the wild type C57BL/6 strain. […] RNA levels (absolute copy numbers) were obtained following nCounter (NanoString Technologies Inc., Seattle, Wash.) quantification, and group samples were analyzed using nSolver analysis software (NanoString Technologies Inc., Seattle, Wash.).

Data set [3] relates to C57BL/6 mice. Kind of data set: Peritoneal lavage IP immune cell counts and FACS macrophage phenotype. The data set is classed as in vivo.
The subject of data set [4] is C57BL/6 mice. The data set is described as follows: In vivo wound healing of skin incisions. An excerpt: For in vivo wound healing: C57BL/6 mice were anesthetized (same as above) and shaved, and skin incisions 1.5 cm in length were made along the midline. Each incision was then wound clipped shut for both vehicle and daily GW2580-treated C57BL/6 mice. Wound clips were removed and then replaced each imaging day up until day 7 (required to maintain them up until at least this time), after which clips were left off completely. Photos were acquired on days 0, 1, 4, 7, 10, and 14 post-incision. After 14 days, mice were sacrificed, and skin samples were prepared for histological assessment (H&E and Masson's Trichrome) of both vehicle and GW2580 treatment groups. Cross-sections through the incision line were generated to assess the level of in vivo healing following a 14-day treatment regimen. For IP innate immune cell counts, FACS, and phagocytosis assays: cells were isolated by peritoneal lavage with 8 mL DPBS, diluted into RPMI, and then subsequently counted, and aliquoted either for staining and FACS analysis (as described above), or for phagocytosis assays. Peritoneal exudate macrophages isolated by IP lavage from (n=5) mice in each treatment group were immediately plated (400,000 cells/well in a 24-well plate) and incubated with fluorospheres for 90 minutes to determine phagocytic activity. 1 μm orange fluorospheres (540/560) (Cat# F13082, Invitrogen, Carlsbad, Calif.) were added to each well in a volume of 500 μL from an initial dilution of 20 μL into 10 mL. After addition, plates were spun down at 1,000 rpm for 1 min, and then placed in an incubator for 90 minutes to allow IP macrophages time to phagocytose the 1 μm diameter fluorospheres. Following the 90-minute incubation, all wells were fixed with 4% paraformaldehyde and stored at 4 C prior to imaging using a fluorescent and brightfield-capable EVOS microscope (Advanced Microscopy Group). […] Following appropriate incubation times, samples were read in a black-wall 96-well plate with a Tecan fluorescent-capable Infinite M1000 plate reader.

The mark [5] stands for this setting: RNA extracts 14 days post-implant, alginate.

Consider `COc1ccc(COc2ccc(Cc3cnc(N)nc3N)cc2OC)cc1` [GW2580], for which, in data set [1], the ROS activity result is “no differences”. Further, in data set [2] (setting [5]), the “expression of macrophage-associated (downstream) factors (FIG. 13F)” value is “inhibited” and the “expression of macrophage-specific factors (FIG. 13D)” value was “inhibited”. Moreover, the “expression of non-immune-associated upstream inflammation-associated gene family (FIG. 18B)” value in data set [2] (alginate-implanted mice, 14 days) is “decreased back to mock implanted (saline) control levels”. The “IP macrophage phenotype (CD68 & CD11b staining)” value in data set [3] (peritoneal lavage after 4 and 14 days of daily treatment, vs vehicle) is given as “shifted (decreased CD68 & CD11b intensities)”. Also, the “overall cell numbers in the peritoneal exudate” value in data set [3] (vs untreated and vehicle-treated) is given as “unchanged”. The “incision site closure at day 7” value in data set [4] (1.5 cm skin incision, daily treatment, day 7, skin stretched apart) is “shut and not pulling apart”. Besides, the “scarring at day 14” value in data set [4] (1.5 cm skin incision, daily treatment, day 14) is reported as “very little scarring”. For the same compound, the “wound resolution and healing potential by width and depth measurements (histology)” value in data set [4] (day 14 post-incision, vs vehicle) was “no significant (ns) differences”.
